Experimental data taken from publication PMC10386950 (Clinical Pharmacokinetics, 2023).

Tested on: UDP-glucuronosyltransferases (UGTs)
Test: Metabolic ratio
Format: in vivo, human
Conditions: Child C patients

OCc1ncc2n1-c1ccc(Cl)cc1C(c1ccccc1F)=NC2 [1′-Hydroxymidazolam]
Decrease of the MR for glucuronide formation: approximately 80%
